The text below walks through data of article PMC5618690, “Structural and functional analysis of two small leucine-rich repeat proteoglycans, fibromodulin and chondroadherin” (Matrix Biology, 2017).

The target in one series is T1, chondroadherin (Homo sapiens, UniProt O15335).
T1 construct: The construct comprises residues 23–359 of Uniprot O15335 and is untagged; made in house; host or cells: HEK293 c18 cells
T1 sequence (O15335 23-359): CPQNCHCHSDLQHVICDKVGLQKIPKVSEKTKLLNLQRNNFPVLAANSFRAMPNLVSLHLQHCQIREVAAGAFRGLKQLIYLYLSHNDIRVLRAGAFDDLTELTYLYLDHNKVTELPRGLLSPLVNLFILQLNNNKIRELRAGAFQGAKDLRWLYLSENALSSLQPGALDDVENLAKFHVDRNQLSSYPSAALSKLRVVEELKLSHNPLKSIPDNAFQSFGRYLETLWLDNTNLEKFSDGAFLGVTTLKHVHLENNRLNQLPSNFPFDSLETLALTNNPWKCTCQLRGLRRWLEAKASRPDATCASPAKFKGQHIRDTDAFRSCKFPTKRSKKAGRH
Nature of the series: Binding of peptide AB31 to chondroadherin in solution by size exclusion chromatography. The method, then:
The natural affinity of chondroadherin for Ni^2 + affinity resin was used to purify the untagged protein. The filtered serum-free cell culture supernatant was adjusted to a final concentration of 20 mM Na-HEPES (pH 7.5) and loaded onto a 5-ml HisTrap Excel column using an Äkta Purifier. Elution was performed with an imidazole gradient in buffer A. The chondroadherin protein was further purified by size exclusion chromatography as described for fibromodulin. Chondroadherin and the collagen-like peptide AB31 were mixed in a 1:2 molar ratio and incubated for 15 min at room temperature. The chondroadherin-AB31 complex was purified by size exclusion chromatography in buffer A.
For orientation: SEC sorts molecules by how far they enter the pores of the column.

The next series has as its target decorin dimer. The note with it: ref [26]; read-out: dissociation constant of decorin dimer; cited from earlier work. The source says: We used size exclusion chromatography with multi-angle light scattering (SEC-MALS) to determine the oligomeric states of fibromodulin and chondroadherin in solution (Fig. 4). The experimentally determined mass of fibromodulin was 56.7 kDa (calculated: 41.5 kDa + 4 N-linked glycans) and that of chondroadherin was 39.6 kDa (calculated: 38.6 kDa). In comparison, using the same SEC-MALS setup, we previously determined an experimental mass of 83.5 kDa for the glycosylated decorin core protein (calculated: 36.2 kDa + 4 N-linked glycans).

The conditions of series [1]: ref [26], cited from earlier work. An excerpt: Fig. 3 Concave face interactions in SLRP crystal structures. For each structure, two orthogonal views are shown. […] The experimentally determined mass of fibromodulin was 56.7 kDa (calculated: 41.5 kDa + 4 N-linked glycans) and that of chondroadherin was 39.6 kDa (calculated: 38.6 kDa). In comparison, using the same SEC-MALS setup, we previously determined an experimental mass of 83.5 kDa for the glycosylated decorin core protein (calculated: 36.2 kDa + 4 N-linked glycans).

On to GAOGPSGFQGLOGPOGPO, for which, on chondroadherin (SEC, Superdex 75, AB31:chondroadherin 2:1 molar ratio, 15 min, room temperature, buffer A (20 mM HEPES pH 7.5, 150 mM NaCl, 2 mM CaCl2)), the “complex formation with chondroadherin in solution” value was “forms a stable complex with chondroadherin in solution”. Moreover, on chondroadherin (sequence shared by II-26 and AB31), the “binding site quality of shared sequence” value was “high-affinity binding site for chondroadherin”.
In the case of decorin, the Kd at decorin dimer was 1400 nM. In series [1] (not SEC-MALS of this work, [32], [33]), the “oligomeric state in solution (literature)” value is given as “form stable dimers in solution”. The “experimental mass of glycosylated decorin core protein” value in series [1] (same SEC-MALS setup, previously determined) is 83.5 kDa.
